Reference: ChEMBL document CHEMBL1201862, “PubChem BioAssay data set” (2004)
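Method: 48-hour compound exposure of cells in 96-well plates, five concentrations, linear interpolation of endpoints. At the GI50, growth is halved.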 Active and inactive are the calls of the source. Rule as the data show it: active = GI50 up to about 1.1 µM and inactive = higher.

Experiments:
Assay in all cases: NCI tumour cell line growth inhibition, 48 h
OVCAR-8 = system: OVCAR-8
DMS-273 = system: DMS-273
SF-268 = system: SF-268
DLD-1 = system: DLD-1
HOP-18 = system: HOP-18
LXFL 529 = system: LXFL 529
OVCAR-5 = system: OVCAR-5
M19-MEL = system: M19-MEL
EKVX = system: EKVX
OVCAR-3 = system: OVCAR-3
KM-20L2 = system: KM-20L2
HCC 2998 = system: HCC 2998
COLO 205 = system: COLO 205
SN12C = system: SN12C
TK-10 = system: TK-10
MCF7 = system: MCF7
NCI/ADR-RES = system: NCI/ADR-RES

| Compound | GI50 (OVCAR-8) | GI50 (DMS-273) | GI50 (SF-268) | GI50 (DLD-1) | GI50 (HOP-18) | GI50 (LXFL 529) | GI50 (OVCAR-5) | GI50 (M19-MEL) | GI50 (EKVX) | GI50 (OVCAR-3) | GI50 (KM-20L2) | GI50 (HCC 2998) | GI50 (COLO 205) | GI50 (SN12C) | GI50 (TK-10) | GI50 (MCF7) | GI50 (NCI/ADR-RES) |
| --- | --- | --- | --- | --- | --- | --- | --- | --- | --- | --- | --- | --- | --- | --- | --- | --- | --- |
| CCc1ccccc1NC(=O)c1cccc([N+](=O)[O-])c1O | 46.7 µM (inactive) | 22.1 µM (inactive) | 25.2 µM (inactive) | 26.7 µM (inactive) | 66.5 µM (inactive) | 36.4 µM (inactive) | 17.9 µM (inactive) | 23.6 µM (inactive) | 30.8 µM (inactive) | 26.7 µM (inactive) | 24.7 µM (inactive) | 24.7 µM (inactive) | 17.2 µM (inactive) | 31 µM (inactive) | – | – | – |
| CC(=O)NC1=C(NC(C)(C)C)C(=O)c2ccccc2C1=O | 20.3 µM (inactive) | 26.1 µM (inactive) | 26.9 µM (inactive) | 15.9 µM (inactive) | 14.8 µM (inactive) | 15.2 µM (inactive) | 48.1 µM (inactive) | 15.4 µM (inactive) | 28.2 µM (inactive) | 15.6 µM (inactive) | 18.7 µM (inactive) | > 100 µM (inactive) | 83.4 µM (inactive) | 18.2 µM (inactive) | 19.3 µM (inactive) | – | – |
| O=c1[nH]cnc2[nH]nnc12 | 0.723 µM (active) | 6 µM (inactive) | 1.06 µM (active) | – | 2.33 µM (inactive) | 84.7 µM (inactive) | 29.8 µM (inactive) | 4.02 µM (inactive) | > 100 µM (inactive) | 14 µM (inactive) | 3.87 µM (inactive) | 18.1 µM (inactive) | 47.1 µM (inactive) | 1.93 µM (inactive) | 7.52 µM (inactive) | – | – |
| C=C1C(=O)O[C@H]2C1[C@H](OC(=O)/C(C)=C\COC(C)=O)C[C@]1(CO1)[C@@H]1[C@H](O)[C@H]3O[C@@]3(C)[C@@H]12 (stereo partly specified) | 24.8 µM (inactive) | 26.3 µM (inactive) | 21.1 µM (inactive) | 12.2 µM (inactive) | 20 µM (inactive) | – | > 71.6 µM (inactive) | 15.7 µM (inactive) | 26.3 µM (inactive) | 18.3 µM (inactive) | 30.5 µM (inactive) | 15 µM (inactive) | 8.73 µM (inactive) | 22.3 µM (inactive) | – | 11.5 µM (inactive) | 21.4 µM (inactive) |
| COC(=O)C(C#N)C1NC(=O)c2ccccc21 (stereo unspecified) | > 100 µM (inactive) | > 100 µM (inactive) | > 100 µM (inactive) | > 100 µM (inactive) | > 100 µM (inactive) | – | > 100 µM (inactive) | > 100 µM (inactive) | > 100 µM (inactive) | > 100 µM (inactive) | > 100 µM (inactive) | > 100 µM (inactive) | > 100 µM (inactive) | > 100 µM (inactive) | > 100 µM (inactive) | – | – |
| O=c1cc(-c2ccccc2)oc2cc(OCCCOc3ccc4c(=O)cc(-c5ccccc5)oc4c3)ccc12 | > 100 µM (inactive) | > 100 µM (inactive) | – | > 100 µM (inactive) | > 100 µM (inactive) | > 100 µM (inactive) | > 100 µM (inactive) | > 100 µM (inactive) | > 100 µM (inactive) | > 100 µM (inactive) | > 100 µM (inactive) | > 100 µM (inactive) | > 100 µM (inactive) | > 100 µM (inactive) | > 100 µM (inactive) | – | – |
| CN(C)CC1(C)CC/C(=C\c2ccc(Cl)cc2)C1=O (stereo unspecified) | 40.1 µM (inactive) | 20.7 µM (inactive) | 36.9 µM (inactive) | 29.2 µM (inactive) | 46 µM (inactive) | 21.1 µM (inactive) | > 100 µM (inactive) | 50.8 µM (inactive) | – | 34.7 µM (inactive) | 21.3 µM (inactive) | 40.5 µM (inactive) | 17.4 µM (inactive) | 51.3 µM (inactive) | 88.5 µM (inactive) | – | – |
| CCCC/C(C)=N/NC(N)=S | > 100 µM (inactive) | – | > 100 µM (inactive) | > 100 µM (inactive) | > 100 µM (inactive) | > 100 µM (inactive) | > 100 µM (inactive) | > 100 µM (inactive) | > 100 µM (inactive) | > 100 µM (inactive) | > 100 µM (inactive) | > 100 µM (inactive) | > 100 µM (inactive) | > 100 µM (inactive) | > 100 µM (inactive) | – | – |
| C=C1C(=O)OC2/C=C(\C)CC(O)/C=C(/CO)CC(OC(=O)/C(C)=C/C)C12 (stereo unspecified) | 24 µM (inactive) | 24 µM (inactive) | 46.8 µM (inactive) | 26.8 µM (inactive) | 26.3 µM (inactive) | – | 147 µM (inactive) | 23 µM (inactive) | 23 µM (inactive) | 29.9 µM (inactive) | 71.1 µM (inactive) | 42.7 µM (inactive) | 19.3 µM (inactive) | 131 µM (inactive) | – | 21.7 µM (inactive) | 130 µM (inactive) |
| O=C1OC(=O)C2C3C=CC(C12)C1C2C=CC2C31 (stereo unspecified) | > 100 µM (inactive) | > 100 µM (inactive) | > 100 µM (inactive) | – | > 100 µM (inactive) | > 100 µM (inactive) | > 100 µM (inactive) | > 100 µM (inactive) | > 100 µM (inactive) | – | > 100 µM (inactive) | > 100 µM (inactive) | > 100 µM (inactive) | > 100 µM (inactive) | > 100 µM (inactive) | – | – |
| COc1cc(OC)c([C@@H]2OC(=O)C3C2C(=O)O[C@H]3c2cc(OC)c(OC)cc2OC)cc1OC (stereo partly specified) | > 100 µM (inactive) | > 100 µM (inactive) | – | > 100 µM (inactive) | > 100 µM (inactive) | > 100 µM (inactive) | – | 70.1 µM (inactive) | > 100 µM (inactive) | > 100 µM (inactive) | > 100 µM (inactive) | > 100 µM (inactive) | > 100 µM (inactive) | > 100 µM (inactive) | – | – | – |
| Cc1cccc(-n2c(=S)[nH]c3c(sc(=O)n3-c3ccccc3C)c2=O)c1 | > 100 µM (inactive) | > 100 µM (inactive) | > 100 µM (inactive) | > 100 µM (inactive) | > 100 µM (inactive) | > 100 µM (inactive) | > 100 µM (inactive) | > 100 µM (inactive) | > 100 µM (inactive) | > 100 µM (inactive) | > 100 µM (inactive) | > 100 µM (inactive) | > 100 µM (inactive) | > 100 µM (inactive) | – | – | – |
| O=C(N/N=C(\c1nc2ccc(Cl)cc2nc1O)C(O)c1ccccc1Cl)c1ccncc1 (stereo unspecified) | – | > 100 µM (inactive) | > 100 µM (inactive) | > 100 µM (inactive) | > 100 µM (inactive) | > 100 µM (inactive) | > 100 µM (inactive) | > 100 µM (inactive) | > 100 µM (inactive) | > 100 µM (inactive) | > 100 µM (inactive) | > 100 µM (inactive) | > 100 µM (inactive) | – | > 100 µM (inactive) | – | – |
| Cc1nc(-c2cccnc2)sc1C(=O)/C=C/c1cccc([N+](=O)[O-])c1 | > 100 µM (inactive) | > 100 µM (inactive) | > 100 µM (inactive) | > 100 µM (inactive) | > 100 µM (inactive) | – | > 100 µM (inactive) | > 100 µM (inactive) | > 100 µM (inactive) | > 100 µM (inactive) | > 100 µM (inactive) | > 100 µM (inactive) | > 100 µM (inactive) | > 100 µM (inactive) | > 100 µM (inactive) | – | – |
| O=C(Nc1ccc(C(F)(F)F)cc1[N+](=O)[O-])C(=O)Nn1c(S)nc2ccccc2c1=O | > 100 µM (inactive) | > 100 µM (inactive) | > 100 µM (inactive) | > 100 µM (inactive) | > 100 µM (inactive) | – | > 100 µM (inactive) | > 100 µM (inactive) | 33.3 µM (inactive) | – | > 100 µM (inactive) | > 100 µM (inactive) | > 100 µM (inactive) | > 100 µM (inactive) | > 100 µM (inactive) | – | – |
| CN(C)CCC1(C2=CCCC2)CC/C(=C\c2ccccc2Cl)C1=O (stereo unspecified) | 15 µM (inactive) | – | 14.3 µM (inactive) | 15.2 µM (inactive) | 12.4 µM (inactive) | 11.5 µM (inactive) | 15.7 µM (inactive) | 33 µM (inactive) | 15.6 µM (inactive) | 14.3 µM (inactive) | 11.5 µM (inactive) | 8.61 µM (inactive) | 16.2 µM (inactive) | 13.4 µM (inactive) | 18.7 µM (inactive) | – | – |
| NC1=NS(=O)(=O)Nc2nc(-c3ccc([N+](=O)[O-])o3)[nH]c21 | 25.1 µM (inactive) | 21.4 µM (inactive) | 20 µM (inactive) | 15.8 µM (inactive) | 16.3 µM (inactive) | 12.7 µM (inactive) | 19.4 µM (inactive) | 16.6 µM (inactive) | – | 24.7 µM (inactive) | 23.1 µM (inactive) | 16.8 µM (inactive) | > 10 µM (inactive) | 17.7 µM (inactive) | 19 µM (inactive) | – | – |
| BrC/C=C/C[P+](c1ccccc1)(c1ccccc1)c1ccccc1 | 3.91 µM (inactive) | 2.44 µM (inactive) | 15.7 µM (inactive) | – | 67 µM (inactive) | 1.7 µM (inactive) | 31 µM (inactive) | 10.8 µM (inactive) | – | 7.28 µM (inactive) | 27.2 µM (inactive) | 35.2 µM (inactive) | 4.53 µM (inactive) | 19.5 µM (inactive) | 11.6 µM (inactive) | – | – |
| O=C(CC(=O)c1ccc([N+](=O)[O-])cc1)C(=O)Nc1nccs1 | – | > 100 µM (inactive) | > 100 µM (inactive) | > 100 µM (inactive) | > 100 µM (inactive) | > 100 µM (inactive) | > 100 µM (inactive) | – | > 100 µM (inactive) | > 100 µM (inactive) | > 100 µM (inactive) | > 100 µM (inactive) | – | > 100 µM (inactive) | > 100 µM (inactive) | – | – |
